# Assay results published in US20100196465A1, “STABLE PHARMACEUTICAL COMPOSITION OF A WATER-SOLUBLE VINORELBINE SALT” (Pierre Fabre Medicament, priority 2007, published 2010).
# Test: Stability test at 5° C. in a sealed package after 6 and 12 months (impurity content)
# Format: physicochemical
# Conditions: external 20% humidity, % of the total weight of the composition
# Experimental: The compositions as gelatin capsules are housed in a sealed package (T0) and stored at 5° C. with an external 20% humidity rate. Next, the impurity content (in % of the total weight of the composition) is dosed after 6 and 12 months (T6 and T12 respectively) and compared to that dosed beforehand at T0. The difference between the percentages at T6 and T0 and then T12 and T0 indicate the change in the impurity content.
# It is compared with that obtained for freeze-dried vinorelbine ditartrate stored under the same conditions.
# This operating procedure was applied in the following Examples 2 to 5.
smiles,measurement,value
"CCC1=C[C@@H]2CN(C1)Cc1c([nH]c3ccccc13)[C@@](C(=O)OC)(c1cc3c(cc1OC)N(C)[C@H]1[C@@](O)(C(=O)OC)[C@H](OC(C)=O)[C@]4(CC)C=CCN5CC[C@]31[C@@H]54)C2 [Vinorelbine ditartrate, vinorelbine ditartrate]",Change in impurity content T0 to T12,T0 to T12: +0.79%
